The text below walks through data of PMC6105598, “Targeting protein-protein interactions for therapeutic discovery via FRET-based high-throughput screening in living cells” (Scientific Reports, 2018).

For experiment [1], the system named is skeletal muscle SR Ca-ATPase. On the set-up: method as in PMID 12022919. The settings on record: high concentrations (50 µM); cited from earlier work.
In experiment [2] the target is T1, skeletal SR (SERCA1a only) (Oryctolagus cuniculus, UniProt P04191).
T1 construct: Skeletal muscle SR membrane vesicles were isolated from longissimus dorsi obtained from New Zealand white rabbits; from tissue; host or cells: rabbit longissimus dorsi skeletal muscle, SR membrane vesicles
Briefly: Ca-ATPase activity of skeletal SR (SSR), NADH-linked enzyme-coupled assay. The class given is biochemical, rabbit. As to conditions: for EC50 / Vmax @ 30 µM / ΔVmax @ 30 µM: SSR; for Vmax @ 30 µM / ΔVmax @ 30 µM: 30 µM compound; for ΔVmax @ 30 µM: relative to DMSO control. The method, then:
To further examine the functional effects of Hit compounds, Ca-ATPase assays were performed on both skeletal SR (SERCA1a only) and cardiac SR (SERCA2a + PLB) at a series of Ca concentrations ranging from pCa 5 to 8.
(§1) Skeletal muscle SR membrane vesicles were isolated from longissimus dorsi obtained from New Zealand white rabbits, as previously described. Cardiac SR membrane vesicles were isolated from ventricular myocardium obtained from fresh pig hearts. All experimental protocols were reviewed and approved by University of Minnesota’s Institutional Animal Care and Use Committee, an Association for Assessment and Accreditation of Laboratory Animal Care institution.
(§2) An enzyme-coupled, NADH-linked ATPase assay was used to measure SERCA ATPase activity in 96-well microplates. Each well contained 0.8 μg (skeletal) or 2 μg (cardiac) of SR vesicles adjusted for the different SERCA contents of skeletal and cardiac SR, 50 mM MOPS (pH 7.0), 100 mM KCl, 5 mM MgCl2, 1 mM EGTA, 0.2 mM NADH, 1 mM phosphoenol pyruvate, 10 IU/mL of pyruvate kinase, 10 IU/mL of lactate dehydrogenase, 3.5 μg/mL of the Ca ionophore A23187, and CaCl2 added to set free [Ca] to the desired values. The assay was started upon the addition of ATP at a final concentration of 5 mM and read in a SpectraMax Plus microplate spectrophotometer rom Molecular Devices (Sunnyvale, CA).

For experiment [3], the target named is T2, SERCA2a-PLB complex (GFP-SERCA2a / RFP-PLB in HEK293 cells) (Homo sapiens, UniProt P16615+P26678, C36A/C41F/C46A). Briefly: FRET of SERCA2a-PLB biosensor in saponin-permeabilized cells at low and high Ca. The settings on record: 100 nM Tg, low Ca (100 nM) vs high Ca (10 µM).
Experimental: To test this, we quantified FRET changes in permeabilized cells under conditions of low Ca (100 nM) and high Ca (10 µM).
(a) Left- FLT measurements in saponin-permeabilized cells under conditions of low Ca (100 nM) and high Ca (10 µM), and in the absence and presence (100 nM) of the SERCA inhibitor thapsigargin (Tg). […] Error bars indicate SD (n = 3). Statistical differences determined using 1-way ANOVA followed by Tukey post hoc analysis (more detailed analysis is provided in Supplemental Table 4). *P ≤ 0.01 and N.S. indicating P ≥ 0.05.
To generate SERCA2a-PLB biosensor, HEK293 cells were transiently transfected using Lipofectamine 3000 with GFP-SERCA2a and RFP-PLB in a 1:7 molar ratio for the screen. Cells were then assayed 48 hours post-transfection. For cell permeabilization experiments, cells were trypsinized (TrypLE, Thermo Fischer Scientific), PBS-washed (three times), and resuspended in a homogenization buffer (20 mM MOPS, 0.5 MgCl2, protease inhibitor cocktail (Roche, Basel, Switzerland)). Saponin (Sigma-Aldrich) was added to a final concentration of 10 µg/mL and cells were incubated for 4 min at 37 °C water bath. Saponin was removed by centrifugation for 3 min, cells were washed twice with homogenization buffer, and resuspended in homogenization buffer.
Experiment [4] has as its target GFP-SERCA2a (eGFP fused to the N-terminus of human cardiac sarcoplasmic reticulum Ca-ATPase SERCA2a) (human) (UniProt P16615). Kind of experiment: FRET or BRET; time-resolved FRET (donor fluorescence lifetime, plate reader) in live HEK293 cells co-expressing GFP-SERCA2a (donor) and increasing amounts of RFP-PLB (acceptor); value at saturating acceptor. (In BRET a luciferase serves as donor, and the signal depends on an acceptor being close.)

For experiment [5] the target is unchanged. Briefly: FRET or BRET; time-resolved FRET (donor fluorescence lifetime) in saponin-permeabilized HEK293 cells, low Ca (100 nM); also tested with 100 nM thapsigargin.
The target is the same in experiment [6]. Briefly: FRET or BRET; time-resolved FRET (donor fluorescence lifetime) in saponin-permeabilized HEK293 cells, high Ca (10 µM); also tested with 100 nM thapsigargin, which prevents the Ca-dependent decrease in FRET.
The target of experiment [7] is T2, SERCA2a-PLB complex (GFP-SERCA2a / RFP-PLB in HEK293 cells). Briefly: SERCA2a-PLB TR-FRET (fluorescence lifetime) biosensor assay in living cells. It counts as cell-based. On the set-up: expressed in transfected cells; host or cells: HEK293. As to conditions: for ΔFLT: compound incubation for 20 min, uncertainty (1 S.D.) 11 ps. On the technique in general: TR-FRET usually uses a lanthanide donor and a delayed reading to cut background.

The target of experiment [8] is T3, cardiac SR (SERCA2a + PLB) (Sus scrofa, UniProt P11607).
T3 construct: Cardiac SR membrane vesicles were isolated from ventricular myocardium obtained from fresh pig hearts; from tissue; host or cells: pig ventricular myocardium, SR membrane vesicles
Briefly: Ca-ATPase activity of cardiac SR (CSR), NADH-linked enzyme-coupled assay. It counts as biochemical, pig. The settings on record: CSR, 30 µM compound. The method, then: To characterize the relationship between the structural readout (FRET) and the functional effects, in vitro Ca-ATPase assays were performed on cardiac SR (which contains both SERCA2a and PLB). […] To further examine the functional effects of Hit compounds, Ca-ATPase assays were performed on both skeletal SR (SERCA1a only) and cardiac SR (SERCA2a + PLB) at a series of Ca concentrations ranging from pCa 5 to 8.
as §1, §2

Chain of RFP-PLB (tagRFP fused to the N-terminus of a monomeric mutant of human phospholamban) (P26678 whole entry C36A/C46A, change not shown, the tested form may be a part): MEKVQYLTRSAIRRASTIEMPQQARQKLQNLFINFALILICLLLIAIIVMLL
T1 sequence (P04191 1-994 isoform P04191-2): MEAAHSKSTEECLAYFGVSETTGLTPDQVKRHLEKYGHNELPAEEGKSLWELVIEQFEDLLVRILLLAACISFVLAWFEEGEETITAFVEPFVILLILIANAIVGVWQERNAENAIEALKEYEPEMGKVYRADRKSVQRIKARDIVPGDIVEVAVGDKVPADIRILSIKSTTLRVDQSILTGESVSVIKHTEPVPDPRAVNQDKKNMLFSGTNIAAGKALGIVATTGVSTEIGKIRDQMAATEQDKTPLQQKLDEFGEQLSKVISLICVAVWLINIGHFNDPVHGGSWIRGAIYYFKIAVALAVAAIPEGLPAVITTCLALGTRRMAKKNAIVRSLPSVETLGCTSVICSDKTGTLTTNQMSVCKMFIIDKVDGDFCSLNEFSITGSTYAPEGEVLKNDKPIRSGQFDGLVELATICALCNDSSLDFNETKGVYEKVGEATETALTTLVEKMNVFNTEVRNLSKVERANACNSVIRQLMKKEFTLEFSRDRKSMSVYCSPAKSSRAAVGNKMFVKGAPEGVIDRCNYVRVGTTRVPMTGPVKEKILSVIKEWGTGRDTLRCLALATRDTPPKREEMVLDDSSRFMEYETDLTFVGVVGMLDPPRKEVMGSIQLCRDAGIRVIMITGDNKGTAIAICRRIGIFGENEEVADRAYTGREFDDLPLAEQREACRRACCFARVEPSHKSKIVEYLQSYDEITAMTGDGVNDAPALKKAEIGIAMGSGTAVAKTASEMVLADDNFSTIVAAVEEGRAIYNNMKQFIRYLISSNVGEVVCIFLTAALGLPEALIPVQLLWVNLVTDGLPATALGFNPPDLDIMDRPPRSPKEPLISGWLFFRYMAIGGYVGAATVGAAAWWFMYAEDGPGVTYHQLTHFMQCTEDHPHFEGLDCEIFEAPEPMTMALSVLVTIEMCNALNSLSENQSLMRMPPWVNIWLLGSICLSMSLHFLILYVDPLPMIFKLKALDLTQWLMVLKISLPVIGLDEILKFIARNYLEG
Chain of GFP-SERCA2a (eGFP fused to the N-terminus of human cardiac sarcoplasmic reticulum Ca-ATPase SERCA2a) (human) (P16615 other isoform, or with tags, fused parts or gaps): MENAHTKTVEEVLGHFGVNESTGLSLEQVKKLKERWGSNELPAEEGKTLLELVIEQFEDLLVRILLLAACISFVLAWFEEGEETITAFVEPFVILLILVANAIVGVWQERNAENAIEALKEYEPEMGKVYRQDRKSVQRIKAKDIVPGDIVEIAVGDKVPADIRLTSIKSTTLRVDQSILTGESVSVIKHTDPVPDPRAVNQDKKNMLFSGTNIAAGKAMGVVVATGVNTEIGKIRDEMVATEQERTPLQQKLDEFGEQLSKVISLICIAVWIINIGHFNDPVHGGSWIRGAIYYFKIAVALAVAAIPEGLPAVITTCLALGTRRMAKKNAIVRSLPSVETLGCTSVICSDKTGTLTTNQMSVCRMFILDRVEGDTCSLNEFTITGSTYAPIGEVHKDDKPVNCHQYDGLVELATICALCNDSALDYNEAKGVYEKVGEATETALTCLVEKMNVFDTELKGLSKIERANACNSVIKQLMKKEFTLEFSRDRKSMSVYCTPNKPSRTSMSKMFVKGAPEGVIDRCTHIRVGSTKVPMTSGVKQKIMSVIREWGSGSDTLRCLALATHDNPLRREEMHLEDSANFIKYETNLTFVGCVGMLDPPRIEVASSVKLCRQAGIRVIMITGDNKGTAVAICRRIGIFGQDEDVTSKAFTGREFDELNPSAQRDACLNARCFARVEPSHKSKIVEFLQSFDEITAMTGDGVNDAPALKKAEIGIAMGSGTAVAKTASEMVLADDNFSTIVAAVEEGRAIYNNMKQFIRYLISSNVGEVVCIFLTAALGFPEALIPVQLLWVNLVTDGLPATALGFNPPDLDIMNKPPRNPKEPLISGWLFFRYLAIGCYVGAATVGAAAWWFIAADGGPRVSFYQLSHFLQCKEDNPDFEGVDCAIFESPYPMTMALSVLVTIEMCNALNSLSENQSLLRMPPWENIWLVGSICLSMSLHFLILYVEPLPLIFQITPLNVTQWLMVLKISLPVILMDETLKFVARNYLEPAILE
T2 sequence (P16615 1-997 isoform P16615-2, stated change not applied): as the sequence (P16615 other isoform, or with tags, fused parts or gaps) above
T2 sequence (P26678 whole entry C36A/C41F/C46A, the tested form may be a part): as the sequence (P26678 whole entry C36A/C46A, change not shown, the tested form may be a part) above, with C41F counted along it
T3 sequence (P11607 1-997 isoform P11607-2): as the sequence (P16615 other isoform, or with tags, fused parts or gaps) above, with R371K, N403K, S538P, L570M, H576N, D667E, A713S, S865T, I889V, V963L counted along it
T3 sequence (P61013 whole entry partner): as the sequence (P26678 whole entry C36A/C46A, change not shown, the tested form may be a part) above, with E2D, K27N, A36C, A46C counted along it

As a reminder, the EC50 is the concentration at which the effect is half-maximal. A lower EC50 goes with a more potent agent. Regarding Ivermectin, the Ca-ATPase activity inhibited in experiment [1] was 90%. In addition, in experiment [2], it took 5.75 µM to reach a half-maximal effect (EC50), the “Vmax @ 30 µM” value is on record as 0.32 i.u and the “ΔVmax @ 30 µM” value is on record as -87.6%. The same compound had an EC50 in experiment [2] (listed as ivermectin) of 5.8 µM. For the same compound, the “decrease of Vmax” value in experiment [2] (skeletal SR) is 88%.
`C/C=C(/C)C(=O)O[C@H]1C(C)=C2[C@H]([C@@H]1OC(=O)CCCCCCC)[C@@](C)(OC(C)=O)C[C@H](OC(=O)CCC)[C@@]1(O)[C@H]2OC(=O)[C@@]1(C)O` [thapsigargin]: in experiment [3], the “effect on Ca-dependent decrease in FRET” value is “prevents the Ca-dependent decreases in FRET”.
“RFP-PLB (tagRFP fused to the N-terminus of a monomeric mutant of human phospholamban) (from UniProt P26678 1-52) (natural protein)” had a maximum FRET efficiency E in experiment [4] of 0.103. For the same compound, the FRET efficiency E in experiment [5] worked out at 0.14; in experiment [6], 0.11.
Take `CN1CCC[C@@H]1Cc1c[nH]c2ccc(Nc3ncccc3[N+](=O)[O-])cc12` [CP-135807]: the ΔFLT in experiment [7] (final concentration 10 µM) is recorded as -70 ps; in experiment [7] (final concentration 100 µM), -390 ps. Besides, the EC50 in experiment [7] (concentration-response 0.01-100 µM compound, live HEK293 cells) was more than 100 µM. For the same compound, the “Vmax @ 30 µM” value in experiment [2] was 2.67 i.u; in experiment [8], 0.65 i.u. Further, the entries for the “ΔVmax @ 30 µM” value in experiment [2] and in experiment [8] (relative to DMSO control) were 2.1% and -3.8%, respectively.
